How the values were obtained:
[1] = tested on: methane production in rumen liquor; assay: In vitro test for methane production (modified Hohenheim Forage value Test, HFT); type: cell-based; details: TMR feed, 8 h at 39° C., average of four to eight experiments
Procedure: In vitro test for methane production: A modified version of the “Hohenheim Forage value Test (HFT)” was used for testing the effect of specific compounds on the rumen functions mimicked by this in-vitro system.
Principle: Feed is gadded into a syringe with a composition of rumen liquor and an appropriate mixture of buffers. The solution is incubated at 39° C. After 8 hours the quantity (and composition) of gas phase produced is measured and put into a formula for conversion.
Sample weighing: The feed stuff (i.e. TMR (44% concentrate, 6% hay, 37% maize silage and 13% grass silage) is sieved to 1 mm and weighed exactly into 64 syringes. 4 of these syringes are the substrate controls, which display the gas production without the effect of the tested compounds. 4 other syringes are positive control (3-NOP, 10 µM). When needed, 4 syringes contain a carrier control (if the test compounds need a carrier). The remaining syringes contain the test substances, by groups of 4 syringes, in the amounts as indicated in table 1.
Extraction of the rumen liquor: 750 ml of rumen liquor are added to approximately 1,400 ml of medium solution under continued agitation and CO2-gassing.
Filling the syringes, incubation and determining gas volumes and VFA values: The diluted rumen fluid (24 ml) is added to the glass syringe. The syringes are then incubated for 8 hours at 39° C. under gentle agitation. After 8 hours, the volume of gas produced is measured, and the percentage of methane in the gas phase is determined by gas chromatography.
The food fermented was artificial TMR (44% concentrate, 6% hay, 37% maize silage and 13% grass silage). Gossypol was obtained from Sigma-Aldrich (G8761), and used at a concentration as outlined in table 1.3-Nitrooxy-propanol (3-NOP) was used at the concentration as outlined in table 1. The respective in vitro data was linked to dosage regimes correlating to the same methane reduction in vivo.

[2] = tested on: methane production in ruminants; details: reported in WO2012/084629; cited from earlier work

Structure (SMILES)	Total methane change, found ([1]; single substance at 2.5 μM)	Total methane change, found ([1]; single substance at 5 μM)	Total methane change, found ([1]; single substance at 10 μM)	Reduction of methane production in ruminants (in words) [2]	Total methane change, found ([1]; single substance at 20 μM)	Total methane change, found ([1]; single substance at 100 μM)
O=[N+]([O-])OCCCO [3-NOP, 3-Nitrooxypropanol]	−12 % vs. control	−54 % vs. control	−98 % vs. control	significantly reduce the methane production		
Cc1cc2c(C(C)C)c(O)c(O)c(C=O)c2c(O)c1-c1c(C)cc2c(C(C)C)c(O)c(O)c(C=O)c2c1O [G, Gossypol]		−1 % vs. control	−11 % vs. control		−15 % vs. control	−69 % vs. control
